Assay results as given in article PMC5295395, “Inhibition of PlexA1-mediated brain tumor growth and tumor-associated angiogenesis using a transmembrane domain targeting peptide” (Oncotarget, 2016).

Tests used:
HMEC cells = experiment: 3D migration assay with HMEC spheroids in plasma clot; assay type: cell-based, human; conditions: 3D plasma clot, MTP-PlexA1 10^−7 M, VEGF 100 ng/ml
[1] = test system: chick chorio-allantoic membrane blood vessels; experiment: chick embryonic chorio-allantoic membrane assay; assay type: in vivo; conditions: chick CAM, local deposition, 10^−7 M, 24 h incubation
Procedure: The CAM assay was performed using Leghorn eggs. After 4 days incubation at 37°C, the shells were opened and the embryos were transferred to a Petri dish. The CAMs were grown for additional 4 days before deposition of silicone reservoirs in a region containing one large vessel. Reservoirs were filled with 20 μl VEGF165 solution (20 μg/ml) or a combination of VEGF165 (20 μg/ml) + MTP-PlexA1 (10–7 M). After 24 h incubation, micro- photographs were taken for quantification of vessel growth. Camera lucida drawing was systematically performed to allow better counting of blood vessels and sprouting; the entire analysis being performed in blind conditions.

[2] = test system: U118MG-Luc glioma tumors in nude mice; experiment: heterotopic (subcutaneous) U118MG-Luc xenograft, tumor growth; assay type: in vivo, human cells in mouse
Procedure: To address the biological consequences of MTP-PlexA1-mediated inhibition of PlexA1 we used the U118MG-Luc glioma cell line genetically engineered to express the luciferase reporter gene. […] Cells were then grafted subcutaneously and tumor growth was monitored every 5 days for a total period of 20 days. […] The quantitative analysis of the cumulated luminescent signal acquired all along the protocol confirmed the strong reduction of tumor development translating into a marked 75% reduction of the averaged luminescent signal at the end point (Figure 6C). […] However, responses were strong for 8 out of 10 mice with some responses close to 100%, all of them being at least Partial Response (PR) (Figure 6D). In order to clarify the mechanism by which MTP-PlexA1 is exerting tumor growth inhibition we collected tumors and analyzed them histologically.
(B) Representative photographs illustrating the kinetic of tumor growth over 20 days in the two experimental groups. (C) Cumulated growth curves of the tumors (UA: Arbitrary Unit). (D) Waterfall plot of best response representing the percent change in tumor volume of individual treated animals (grey bars, n = 10) compared to the average tumor volume increased determined in the control group (dark bars, n = 10). (E) Proximity ligation assay on tumor slices showing that MTP-PlexA1 (10^−7 M) decreases the number of PlexA1-NRP1 interactions in U118MG cells. (F) Representative microphotographs and related quantification of PH3 positive cells in tumor slices (G) Representative microphotographs and related quantification of CD31 positive regions in tumor slices (% CD31 per μm² of tumors).
Experiments were performed according to the Guide for Care and Use of Laboratory Animals (E67-6-482-21) and the European Directive with approval of the regional ethical committee (Reference AL/55/62/02/13). Heterotopic grafts were produced by injecting […] in the flank of pathogen-free NMRI nude mice (Janvier, Le Genest Saint Isle, France). Intraperitoneal administration of vehicle (LDS 72 μM) or MTP-PlexA1 treatment (10–7 M) were done every days during 20 days when the tumors reached a minimal volume of 100 mm3. For the experiment conducted with cancer stem cell line NCH644mCherry, we performed bilateral grafting of 10^6 cells on each flank of 20 nude mice without treatment or pre-incubated for 1 hour with MTP-PlexA1 at 10–7 M. After 5 days, the fluorescence emission of developing tumors was recorded using the NightOwl system (Berthold) using appropriate excitation and emission filters (580 nm/620 nm respectively).

[3] = test system: U373MG tumors in nude mice; experiment: heterotopic U373MG xenograft in nude mice; assay type: in vivo, human cells in mouse
Procedure: Supplementary Figure S6: The anti-tumor effect of MTP-PlxA1 was verified in U373MG human GBM line. […]
(Stable Disease) and 62.5% PR (Partial Response).

[4] = subcutaneous U118MG-Luc, every day, 1 μg/kg, n = 10
[5] = U373MG, waterfall best response, RECIST criteria

Sequence: TLPAIVGIGGGGGLLLLVIVAVLIAYKRK [MTP-PlexA1, synthetic transmembrane peptide mimicking the TMD of PlexA1]
- VEGFA-induced HMEC cell migration (HMEC cells): abolished
- VEGFA-induced vascular growth and complexity [1]: significantly inhibited
- mice not responding to treatment (waterfall best response) [2, 4]: 2 out of 10
- mice with strong response, at least Partial Response (PR) [2, 4]: 8 out of 10
- reduction of averaged luminescent signal at the end point ([2]; subcutaneous U118MG-Luc, i.p. every day, 1 μg/kg, 20 days): 75%
- best response, some animals ([2]; waterfall graph, percent change in tumor volume, individual animals): ~100%
- change of endpoint tumor weight ([3]; U373MG flank graft, daily i.p., 10–7 M, p = 0.0044): −44%
- mice responding to the treatment [3, 5]: 100%
- mice with PR (Partial Response) [3, 5]: 62.5%
- mice with SD (Stable Disease) [3, 5]: 37.5%
